This assay has as its system T47D cells. In words: T47D cell proliferation assay (BrdU incorporation). The assay is classed as cell-based. The settings on record: half-maximal increase in BrdU incorporation in T47D cells; individual studies. How it is done:
3. T47D Cell Proliferation Assay
The objective of this assay is the determination of progestational and antiprogestational potency by using a cell proliferation assay in T47D cells. A compound's effect on DNA synthesis in T47D cells is measured.
DMEM:F12 (1:1) (GIBCO, BRL) supplemented with 10% (v/v) fetal bovine serum (not heat-inactivated), 100 U/ml penicillin, […], and 2 mM GlutaMax (GIBCO, BRL).
Minimum Essential Medium (MEM) (#51200-038GIBCO, BRL) phenol red-free supplemented with 0.5% charcoal stripped fetal bovine serum, 100 U/ml penicillin, 200 mg/ml streptomycin, and 2 mM GlutaMax (GIBCO, BRL).
Stock T47 D cells are maintained in growth medium. For BrdU incorporation assay, cells are plated in 96-well plates (Falcon, Becton Dickinson Labware) at 10,000 cells/well in growth medium. […]
At the end of BrdU labeling, the medium is removed and BrdU incorporation is measured using a cell proliferation ELISA kit (#RPN 250, Amersham Life Science) according to manufacturer's instructions. […] Then 25 μl of 1 M sulfuric acid is added to each well to stop color reaction and optical density is read in a plate reader at 450 nm within 5 min.
Square root-transformed data are used for analysis of variance and nonlinear dose response curve fitting for both agonist and antagonist modes. […] EC50 or IC50 values are calculated from the retransformed values. […]
In general terms: Dividing cells build labelled thymidine or BrdU into new DNA.

“And” between values parts separate entries of the source, which are not always exact repeats. Equal values may be shown once.

Broadly, the EC50 is the concentration that produces a half-maximal response. A low value points to greater potency. The molecule `CC(=O)O[C@]1(C(C)=O)CC[C@H]2[C@@H]3C[C@H](C)C4=CC(=O)CC[C@]4(C)[C@H]3CC[C@@]21C` [MPA, medroxyprogesterone acetate] gave an EC50 of 0.019 nM.
On to `C[C@H](O)C(=O)[C@@]1(C)CC[C@H]2[C@@H]3CCC4=CC(=O)CCC4=C3CC[C@@]21C` [Trimegestone], for which the EC50 is 0.017 nM and 0.014 nM and 0.019 nM.
